{"source": "ChEMBL document CHEMBL3638030", "about": "“IC50 data for the L-type calcium channel extracted from a set of literature articles”", "key": {"[1]": {"molecular_target": "T1, Voltage-dependent L-type calcium channel subunit alpha-1C (Rattus norvegicus, UniProt P22002)", "T1 sequence (P22002 whole entry)": "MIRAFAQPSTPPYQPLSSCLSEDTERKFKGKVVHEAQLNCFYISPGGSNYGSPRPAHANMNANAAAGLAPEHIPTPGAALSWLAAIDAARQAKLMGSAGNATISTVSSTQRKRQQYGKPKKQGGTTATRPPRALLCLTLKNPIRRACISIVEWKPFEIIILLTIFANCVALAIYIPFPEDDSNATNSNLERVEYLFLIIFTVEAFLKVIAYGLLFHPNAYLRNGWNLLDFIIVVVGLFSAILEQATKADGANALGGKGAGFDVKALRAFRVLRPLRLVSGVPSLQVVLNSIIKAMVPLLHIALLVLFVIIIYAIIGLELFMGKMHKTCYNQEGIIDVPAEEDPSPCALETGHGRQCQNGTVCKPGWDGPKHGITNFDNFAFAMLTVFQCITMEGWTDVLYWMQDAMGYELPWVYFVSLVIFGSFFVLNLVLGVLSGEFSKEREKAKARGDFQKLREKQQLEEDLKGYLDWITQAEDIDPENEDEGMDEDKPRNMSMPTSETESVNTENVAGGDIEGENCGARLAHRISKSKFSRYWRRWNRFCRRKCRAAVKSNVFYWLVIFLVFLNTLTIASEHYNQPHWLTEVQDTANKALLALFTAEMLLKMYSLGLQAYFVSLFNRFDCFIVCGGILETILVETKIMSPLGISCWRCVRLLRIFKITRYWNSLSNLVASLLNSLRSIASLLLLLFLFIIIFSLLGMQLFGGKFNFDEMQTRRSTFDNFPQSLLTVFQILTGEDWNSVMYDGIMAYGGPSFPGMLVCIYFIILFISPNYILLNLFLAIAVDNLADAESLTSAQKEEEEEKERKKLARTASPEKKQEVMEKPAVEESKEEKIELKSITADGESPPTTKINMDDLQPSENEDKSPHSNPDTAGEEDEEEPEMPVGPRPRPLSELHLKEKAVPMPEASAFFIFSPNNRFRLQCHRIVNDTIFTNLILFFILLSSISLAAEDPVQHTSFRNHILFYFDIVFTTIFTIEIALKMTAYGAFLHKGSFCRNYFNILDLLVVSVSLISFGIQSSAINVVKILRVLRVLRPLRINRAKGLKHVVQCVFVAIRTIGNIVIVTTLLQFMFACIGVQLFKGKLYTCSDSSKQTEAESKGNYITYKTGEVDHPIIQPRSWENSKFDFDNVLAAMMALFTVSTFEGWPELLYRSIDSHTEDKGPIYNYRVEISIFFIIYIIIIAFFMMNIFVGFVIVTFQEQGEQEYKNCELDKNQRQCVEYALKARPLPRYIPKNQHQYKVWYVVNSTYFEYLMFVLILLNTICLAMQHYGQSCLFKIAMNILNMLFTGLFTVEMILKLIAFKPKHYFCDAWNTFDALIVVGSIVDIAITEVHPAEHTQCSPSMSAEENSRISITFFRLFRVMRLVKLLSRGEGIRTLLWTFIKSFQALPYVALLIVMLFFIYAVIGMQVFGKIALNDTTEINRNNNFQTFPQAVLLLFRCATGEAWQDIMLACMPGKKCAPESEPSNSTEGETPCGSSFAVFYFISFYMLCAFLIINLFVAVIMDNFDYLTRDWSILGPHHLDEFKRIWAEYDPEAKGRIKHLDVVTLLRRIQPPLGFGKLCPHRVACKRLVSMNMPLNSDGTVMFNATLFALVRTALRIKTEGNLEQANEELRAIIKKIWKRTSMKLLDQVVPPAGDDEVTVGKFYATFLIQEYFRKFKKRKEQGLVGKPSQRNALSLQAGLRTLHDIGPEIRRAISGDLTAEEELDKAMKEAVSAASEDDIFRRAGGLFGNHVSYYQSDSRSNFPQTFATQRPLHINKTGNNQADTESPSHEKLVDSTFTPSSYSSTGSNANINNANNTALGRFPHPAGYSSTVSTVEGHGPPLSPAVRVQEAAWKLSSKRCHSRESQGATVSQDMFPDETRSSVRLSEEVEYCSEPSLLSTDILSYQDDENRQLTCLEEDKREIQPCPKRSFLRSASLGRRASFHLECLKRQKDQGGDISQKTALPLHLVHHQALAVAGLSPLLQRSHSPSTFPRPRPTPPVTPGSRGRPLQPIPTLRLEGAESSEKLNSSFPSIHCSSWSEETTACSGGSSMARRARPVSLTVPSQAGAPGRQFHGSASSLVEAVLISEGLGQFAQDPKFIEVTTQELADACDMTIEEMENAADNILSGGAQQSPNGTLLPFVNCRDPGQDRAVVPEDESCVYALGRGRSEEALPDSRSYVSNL", "experiment": "Inhibition of Cav1.2 calcium current measured using whole cell patch clamp in rat myocyte", "format": "functional, Heart, Cardiac Muscle Cell", "parameters": "ca sol conc 1.8 mM, temp 20-25 C"}, "[2]": {"molecular_target": "Voltage-dependent L-type calcium channel subunit alpha-1C (Oryctolagus cuniculus, UniProt P15381)", "experiment": "Inhibition of Cav1.2 calcium current measured using whole cell patch clamp in rabbit ventricular myocytes", "format": "functional, cell-based, Heart, Ventricular myocyte", "parameters": "ca sol conc 1 - BaCl2 mM, temp 37 C"}, "[3]": {"molecular_target": "T2, Voltage-dependent L-type calcium channel subunit alpha-1C (Cavia porcellus, UniProt O35505)", "T2 sequence (O35505 whole entry)": "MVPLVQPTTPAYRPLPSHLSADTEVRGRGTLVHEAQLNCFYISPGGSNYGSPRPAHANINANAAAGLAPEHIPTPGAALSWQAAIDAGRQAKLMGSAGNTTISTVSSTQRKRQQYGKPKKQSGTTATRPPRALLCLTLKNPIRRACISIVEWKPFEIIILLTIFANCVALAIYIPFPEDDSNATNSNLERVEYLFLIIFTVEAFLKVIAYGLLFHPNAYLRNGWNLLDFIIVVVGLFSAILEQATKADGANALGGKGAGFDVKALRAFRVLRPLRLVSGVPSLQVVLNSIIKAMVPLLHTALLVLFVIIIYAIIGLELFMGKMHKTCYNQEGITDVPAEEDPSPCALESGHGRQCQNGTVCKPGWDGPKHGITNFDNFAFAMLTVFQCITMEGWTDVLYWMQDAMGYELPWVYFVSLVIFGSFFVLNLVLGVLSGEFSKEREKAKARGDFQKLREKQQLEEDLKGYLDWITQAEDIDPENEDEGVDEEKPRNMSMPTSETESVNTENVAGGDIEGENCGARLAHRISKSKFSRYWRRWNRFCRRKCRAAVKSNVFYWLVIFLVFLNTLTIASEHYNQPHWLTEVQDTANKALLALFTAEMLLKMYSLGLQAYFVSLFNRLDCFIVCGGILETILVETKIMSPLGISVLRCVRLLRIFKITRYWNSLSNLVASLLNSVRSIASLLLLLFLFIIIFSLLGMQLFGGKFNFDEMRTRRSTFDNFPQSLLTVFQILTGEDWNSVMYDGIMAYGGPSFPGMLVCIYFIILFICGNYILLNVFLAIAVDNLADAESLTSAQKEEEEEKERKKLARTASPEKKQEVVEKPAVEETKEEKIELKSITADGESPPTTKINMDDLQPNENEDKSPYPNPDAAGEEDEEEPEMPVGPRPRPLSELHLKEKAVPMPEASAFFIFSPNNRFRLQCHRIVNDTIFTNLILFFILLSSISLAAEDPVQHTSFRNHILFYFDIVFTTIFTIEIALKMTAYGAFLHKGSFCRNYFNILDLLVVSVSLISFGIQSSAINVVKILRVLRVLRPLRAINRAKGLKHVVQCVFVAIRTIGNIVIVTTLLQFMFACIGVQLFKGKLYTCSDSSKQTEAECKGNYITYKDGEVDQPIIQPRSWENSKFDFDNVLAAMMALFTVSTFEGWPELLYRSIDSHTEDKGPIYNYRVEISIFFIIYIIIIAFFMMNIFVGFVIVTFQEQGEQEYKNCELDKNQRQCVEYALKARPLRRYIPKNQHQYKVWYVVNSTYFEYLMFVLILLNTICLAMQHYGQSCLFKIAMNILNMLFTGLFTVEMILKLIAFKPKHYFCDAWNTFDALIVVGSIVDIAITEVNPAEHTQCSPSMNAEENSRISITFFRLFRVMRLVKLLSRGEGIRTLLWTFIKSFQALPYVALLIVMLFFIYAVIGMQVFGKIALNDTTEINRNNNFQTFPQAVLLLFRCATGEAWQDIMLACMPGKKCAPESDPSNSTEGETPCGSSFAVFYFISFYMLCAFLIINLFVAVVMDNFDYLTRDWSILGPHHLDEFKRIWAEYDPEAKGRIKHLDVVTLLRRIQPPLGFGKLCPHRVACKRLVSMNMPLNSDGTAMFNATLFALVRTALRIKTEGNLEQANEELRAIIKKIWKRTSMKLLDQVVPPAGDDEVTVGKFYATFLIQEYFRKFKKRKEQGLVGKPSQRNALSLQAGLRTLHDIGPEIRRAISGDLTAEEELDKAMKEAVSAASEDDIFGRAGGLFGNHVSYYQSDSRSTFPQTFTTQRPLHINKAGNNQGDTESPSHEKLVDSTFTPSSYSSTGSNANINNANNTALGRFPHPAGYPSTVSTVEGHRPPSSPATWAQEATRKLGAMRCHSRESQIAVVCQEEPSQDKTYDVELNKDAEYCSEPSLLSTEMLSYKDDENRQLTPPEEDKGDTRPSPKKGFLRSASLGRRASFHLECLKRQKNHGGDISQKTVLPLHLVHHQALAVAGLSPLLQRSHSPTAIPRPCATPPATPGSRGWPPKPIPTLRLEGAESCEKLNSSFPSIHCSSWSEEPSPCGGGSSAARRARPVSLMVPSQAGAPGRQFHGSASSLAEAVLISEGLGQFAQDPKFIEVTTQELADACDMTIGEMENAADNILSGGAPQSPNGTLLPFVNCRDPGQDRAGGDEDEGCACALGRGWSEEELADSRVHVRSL", "experiment": "(§1) Inhibition of Cav1.2 calcium current measured using whole cell patch clamp in guinea pig atrial myocytes", "format": "functional, cell-based, Heart, Cardiac Muscle Cell", "parameters": "ca sol conc 1.8 mM, temp 36 pm 1 C"}, "[4]": {"molecular_target": "T1, Voltage-dependent L-type calcium channel subunit alpha-1C", "experiment": "(§2) Inhibition of Cav1.2 calcium current measured using whole cell patch clamp in rat ventricular myocytes", "format": "functional, cell-based, Heart, Ventricular myocyte", "parameters": "ca sol conc 1.8 mM, temp 25-27 C"}, "[5]": {"molecular_target": "L-type calcium channel alpha 1C/beta 2A (Oryctolagus cuniculus, UniProt P15381+P54288)", "experiment": "Inhibition of Cav1.2 calcium current measured using whole cell patch clamp in human HEK293 cells transfected with rabbit L-type calcium channel subunits", "format": "functional, cell-based", "parameters": "ca sol conc 5 mM, temp room"}, "[6]": {"molecular_target": "T1, Voltage-dependent L-type calcium channel subunit alpha-1C", "experiment": "Inhibition of Cav1.2 calcium current measured using FLIPR in rat aortic A7r5 cells", "format": "functional, cell-based"}, "[7]": {"molecular_target": "Voltage-dependent L-type calcium channel subunit alpha-1C (Homo sapiens, UniProt Q13936)", "experiment": "Inhibition of Cav1.2 calcium current measured using whole cell patch clamp in human atrial myocytes", "format": "functional, cell-based, Heart, Cardiac Muscle Cell", "parameters": "ca sol conc 2 mM, temp 22/37 C"}, "[8]": {"molecular_target": "T2, Voltage-dependent L-type calcium channel subunit alpha-1C", "experiment": "(§3) Inhibition of Cav1.2 calcium current measured using whole cell patch clamp in guinea pig ventricular myocytes", "format": "functional, cell-based, Heart, Ventricular myocyte", "parameters": "ca sol conc 2 mM, temp 22/37 C"}, "[9]": {"molecular_target": "T2, Voltage-dependent L-type calcium channel subunit alpha-1C", "experiment": "as §3", "format": "functional, cell-based, Heart, Ventricular myocyte", "parameters": "ca sol conc 1.2 mM, temp 24 pm 1 C"}, "[10]": {"molecular_target": "T1, Voltage-dependent L-type calcium channel subunit alpha-1C", "experiment": "Inhibition of Cav1.2 calcium current measured using whole cell patch clamp in rat Artery myocytes", "format": "functional, cell-based, Tail", "parameters": "ca sol conc 5 mM, temp 20-22 C"}, "[11]": {"molecular_target": "T2, Voltage-dependent L-type calcium channel subunit alpha-1C", "experiment": "as §3", "format": "functional, cell-based, Heart, Ventricular myocyte", "parameters": "ca sol conc 2 mM, temp 21-23 C"}, "[12]": {"molecular_target": "T1, Voltage-dependent L-type calcium channel subunit alpha-1C", "experiment": "as §2", "format": "functional, cell-based, Heart, Ventricular myocyte", "parameters": "ca sol conc 1 mM, temp 22-25 C"}, "[13]": {"molecular_target": "T1, Voltage-dependent L-type calcium channel subunit alpha-1C", "experiment": "as §2", "format": "functional, cell-based, Heart, Ventricular myocyte", "parameters": "ca sol conc 1.8 mM"}, "[14]": {"molecular_target": "T2, Voltage-dependent L-type calcium channel subunit alpha-1C", "experiment": "as §3", "format": "functional, cell-based, Heart, Ventricular myocyte", "parameters": "ca sol conc 1 mM, temp 35 C"}, "[15]": {"molecular_target": "T2, Voltage-dependent L-type calcium channel subunit alpha-1C", "experiment": "as §3", "format": "functional, cell-based, Heart, Ventricular myocyte", "parameters": "ca sol conc 1.8 mM, temp 20-24 C"}, "[16]": {"molecular_target": "T2, Voltage-dependent L-type calcium channel subunit alpha-1C", "experiment": "as §3", "format": "functional, cell-based, Heart, Ventricular myocyte", "parameters": "ca sol conc 1.8 mM, temp 35-36 C"}, "[17]": {"molecular_target": "Voltage-dependent L-type calcium channel subunit alpha-1C (Mus musculus, UniProt Q01815)", "experiment": "Inhibition of Cav1.2 calcium current measured using whole cell patch clamp in mouse ventricular myocytes", "format": "functional, cell-based, Heart, Ventricular myocyte", "parameters": "ca sol conc 2.5 mM, temp 22-24 C"}, "[18]": {"molecular_target": "T2, Voltage-dependent L-type calcium channel subunit alpha-1C", "experiment": "as §1", "format": "functional, cell-based, Heart, Cardiac Muscle Cell", "parameters": "ca sol conc 2 mM, temp 22 pm 1 C"}, "[19]": {"molecular_target": "T2, Voltage-dependent L-type calcium channel subunit alpha-1C", "experiment": "as §3", "format": "functional, cell-based, Heart, Ventricular myocyte", "parameters": "ca sol conc 1.8 mM, temp 35 pm 0.5 C"}}}
{"smiles": "CC(=O)N1CCN(c2ccc(OCC3COC(Cn4ccnc4)(c4ccc(Cl)cc4Cl)O3)cc2)CC1", "note": "(stereo unspecified) [KETOCONAZOLE]", "values": [{"measurement": "IC50", "setting": "[1]", "result": 3.5, "unit": "µM"}]}
{"smiles": "CC(C)[C@@H]1CC[C@@H](C)C[C@H]1O", "note": "[LEVOMENTHOL]", "values": [{"measurement": "IC50", "setting": "[2]", "result": 74.6, "unit": "µM"}]}
{"smiles": "COc1ccc(OCCCN(C)CCOc2ccc3c(c2)OCO3)c([C@@H]2Sc3ccccc3N(C)C2=O)c1", "note": "[LEVOSEMOTIADIL]", "values": [{"measurement": "IC50", "setting": "[3]", "result": 1.29, "unit": "µM"}]}
{"smiles": "O=C1c2ccccc2-c2c3c(cc4ccnc1c24)OCO3", "note": "[LIRIODENINE]", "values": [{"measurement": "IC50", "setting": "[4]", "result": 2.5, "unit": "µM"}]}
{"smiles": "O=c1cc(N2CCOCC2)oc2c(-c3ccccc3)cccc12", "note": "[LY-294002]", "values": [{"measurement": "IC50", "setting": "[5]", "result": 12, "unit": "µM"}]}
{"smiles": "COCC(=O)O[C@]1(CCN(C)CCCc2nc3ccccc3[nH]2)CCc2cc(F)ccc2[C@@H]1C(C)C", "note": "[MIBEFRADIL]", "values": [{"measurement": "IC50", "setting": "[6]", "result": 1.1, "unit": "µM"}]}
{"smiles": "Clc1ccc(COC(Cn2ccnc2)c2ccc(Cl)cc2Cl)c(Cl)c1", "note": "(stereo unspecified) [MICONAZOLE]", "values": [{"measurement": "IC50", "setting": "[1]", "result": 3, "unit": "µM"}]}
{"smiles": "CCCOC(C(=O)OC1CCN(C)CC1)(c1ccccc1)c1ccccc1", "note": "[PROPIVERINE]", "values": [{"measurement": "IC50", "setting": "[7]", "result": 41.7, "unit": "µM"}, {"measurement": "IC50", "setting": "[8]", "result": 34.7, "unit": "µM"}]}
{"smiles": "CCN(CC)CCCC(C)Nc1c2ccc(Cl)cc2nc2ccc(OC)cc12", "note": "(stereo unspecified) [QUINACRINE]", "values": [{"measurement": "IC50", "setting": "[9]", "result": 5.6, "unit": "µM"}]}
{"smiles": "O=c1c(O)c(-c2ccc(O)cc2)oc2cc(O)ccc12", "note": "[RESOKAEMPFEROL]", "values": [{"measurement": "IC50", "setting": "[10]", "result": 27.5, "unit": "µM"}]}
{"smiles": "CCCN1CCCC[C@H]1C(=O)Nc1c(C)cccc1C", "note": "[ROPIVACAINE]", "values": [{"measurement": "IC50", "setting": "[11]", "result": 430, "unit": "µM"}]}
{"smiles": "O=C(/C=C/c1ccc(O)c(O)c1/C=C/c1ccc(O)c(O)c1)O[C@H](Cc1ccc(O)c(O)c1)C(=O)O", "note": "[SALVIANOLIC ACID A]", "values": [{"measurement": "IC50", "setting": "[12]", "result": 38.3, "unit": "µM"}]}
{"smiles": "CC(C)CC(N(C)C)C1(c2ccc(Cl)cc2)CCC1", "note": "(stereo unspecified) [SIBUTRAMINE]", "values": [{"measurement": "IC50", "setting": "[13]", "result": 9.97, "unit": "µM"}]}
{"smiles": "CN1CCN(c2ncc(-c3cc(Cl)cc(Cl)c3Cl)c(N)n2)CC1", "note": "[SIPATRIGINE]", "values": [{"measurement": "IC50", "setting": "[14]", "result": 6.02, "unit": "µM"}]}
{"smiles": "COc1ccc(S(=O)(=O)NCc2cc(CN3CCCC3)c(O)c(CN3CCCC3)c2)cc1", "note": "[SULCARDINE]", "values": [{"measurement": "IC50", "setting": "[15]", "result": 69.2, "unit": "µM"}]}
{"smiles": "CCN(CC)CC#CC(C)(C)OC(=O)C(O)(c1ccccc1)C1CCCCC1", "note": "(stereo unspecified) [TEMIVERINE]", "values": [{"measurement": "IC50", "setting": "[16]", "result": 27, "unit": "µM"}]}
{"smiles": "CCC(C)(C)C(=O)O[C@H]1C[C@@H](C)C=C2C=C[C@H](C)[C@H](CC[C@@H](O)C[C@@H](O)CC(=O)O)[C@H]21", "note": "[TENIVASTATIN]", "values": [{"measurement": "IC50", "setting": "[17]", "result": 3.9, "unit": "µM"}]}
{"smiles": "CC(CC(c1ccccc1)c1ccccc1)NC(C)(C)C", "note": "(stereo unspecified) [TERODILINE]", "values": [{"measurement": "IC50", "setting": "[16]", "result": 33.5, "unit": "µM"}]}
{"smiles": "CCCC(C)C1(CC)C(=O)NC(=S)NC1=O", "note": "(stereo unspecified) [THIOPENTAL]", "values": [{"measurement": "IC50", "setting": "[18]", "result": 0.28, "unit": "µM"}]}
{"smiles": "Cc1c(C)c2c(c(C)c1O)CCC(C)(COc1ccc(CC3SC(=O)NC3=O)cc1)O2", "note": "(stereo unspecified) [TROGLITAZONE]", "values": [{"measurement": "IC50", "setting": "[19]", "result": 0.8, "unit": "µM"}]}
